Here are results for one compound from patent US10568854B2, “Compositions and methods for treating kabuki syndrome and related disorders” (THE JOHNS HOPKINS UNIVERSITY, priority 2014, dated 2020).

“Also recorded” adds a separate entry of the source.

The test system of assay [1] is H3K4me3 in the GCL. As to the kind of experiment: Immunofluorescence of H3K4me3 in dentate gyrus GCL (AR-42 treated mice). The class given is in vivo, mouse. From the text: Animals: Kmt2d^+/βGeo mice, also named Mll2Gt^(RRt024)Byg, were acquired from Bay Genomics (University of California). All experimental mice were on a mixed C57BL/6J and 129/SvEv background. Expected Mendelian ratios were observed when heterozygous animals were bred to wild-type. In heterozygous crosses, however, there was uniform embryonic lethality of homozygotes by ED12, the earliest developmental stage assayed. For treatment with AR-42 mice were orally gavaged daily with drug (Selleck Chemicals, Houston, Tex.) solubilized in vehicle (0.5% methylcellulose, 0.1% Tween-80, water) or with vehicle alone. Drug delivery information was kindly provided by Drs. […] For quantification of DCX positive cells, doses of 0, 5, 10 and 25 mg/kg/day were used. […] Maxillary protrusion was evaluated by ten investigators blinded to genotype and they were asked to rate maxillary protrusion on radiographs as either large (2) or small (1). […]
Confocal microscopy: Z-stack images of slides were taken at either 10× using Zeiss Axiovert 200 with 510-Meta confocal module (Carl Zeiss, Jena, GER) or 25× using Zeiss AxioExaminer with 710NLO-Meta multiphoton (Carl Zeiss, Jena, GER). From 10× pictures, the GCL was highlighted and fluorescent intensities for both DAPI and H3K4me3 were measured at the midpoint of the entire z-stack (Zen software, Carl Zeiss, Jena, GER) with the value for Kmt2d^+/+ animals set equal to one. […]

The subject of assay [2] is genome-wide H3K4me3 in spleen cells. As to the kind of experiment: ChIP-seq of H3K4me3 in spleen cells. The class given is in vivo, mouse. Conditions: 10 mg/kg/day, Kmt2d^+/βGeo mice. The procedure: ChIP-seq: Spleens were dissected from eight mice, four from each kmt2d genotype (+/βGeo or +/+) where half of each genotype was treated with AR-42 and half with vehicle only. Spleens were minced and passed through a […] cell strainer to obtain single cell suspensions. 10 million cells were used for each ChIP-seq experiment following the native chromatin immunoprecipitation protocol, as previously described (Gilfillan et al. (2012) BMC Genomics 13:645), using a ChIP-grade antibody against H3K4me3 (9727, Cell Signaling Technology, Beverly, Mass.).
ChIP-seq data analysis: Sequencing was performed using a MiSeq system (Illumina, San Diego, Calif.). 4.8-9.6 million paired-end 26 by reads were obtained per sample (Table 2; nReads=number of reads, alignRate=fraction aligned to genome; FRIP=fraction of reads in peaks). Reads were aligned to the m. musculus genome, version mm10, using Bowtie 2 (Langmead and Salzberg (2012) Nat. Methods. 9: 357-9). Each sample was examined with regard to alignment rate as well as FRIP (fraction of reads in peaks), a measure of the ChIP efficiency (Table 2). […] For analysis, reads were merged into one meta-sample and peak calling was performed using MACS version 1.4.2 (Zhang et al. (2008) Genome Biol. 9: R137). […] This created a peak by sample matrix of read counts. […] Fold change and overall abundance was calculated as per edgeR. […]

Take `CC(C)[C@H](C(=O)Nc1ccc(C(=O)NO)cc1)c1ccccc1` [AR-42, (S)—N-hydroxy-4-(3-methyl-2-phenylbutanamido)benzamide]: the “H3K4me3 in the GCL” value in assay [1] (25 mg/kg/day, oral gavage, two weeks) was “increased H3K4 trimethylation; also recorded: increased H3K4me3”; in assay [1] (5 and 10 mg/kg/day, both genotypes) it was “dose-dependent increase in H3K4me3”. For the same compound, the “genome-wide H3K4me3 (ChIP-seq)” value in assay [2] is given as “genome-wide increase in H3K4me3; also recorded: improved”.
